Measured values taken from article PMC7496275, “Pentathiepins: A Novel Class of Glutathione Peroxidase 1 Inhibitors that Induce Oxidative Stress, Loss of Mitochondrial Membrane Potential and Apoptosis in Human Cancer Cells” (Chemmedchem, 2020).

Assays:
[1] = test system: Gumbus cells; experiment: Cell morphology after incubation; assay type: cell-based, human; conditions: 25 μM, 6 h
[2] = test system: human GPx; experiment: GPx activity assay with human cancer cell lysates (SISO); assay type: biochemical; conditions: inhibitor at its IC50 for bovine GPx, 0.5 mM GSH
Procedure: To investigate whether the pentathiepins have an inhibitory effect on human GPx, cell lysates of the human cervix cancer cell line SISO, which expresses high levels of GPx1 (see below), were incubated with either 4 or MSA in concentrations of the IC50 value for the inhibitory effect on bovine GPx1.
To measure the inhibition of human GPx activity, the enzyme assay was adapted to use human cancer cell lysates in place of the bovine enzyme. A quantity of 100 μg cellular protein (determined according to the Bradford method) per well was used. Due to the large consumption of cell lysates, just the inhibitory effect on GPx at one concentration of pentathiepin was determined in primary screening. The concentration of GSH was raised to a concentration of 0.5 mM to increase the velocity of the reaction, all other conditions were unchanged. The rates of NADPH oxidation were normalized to the solvent control. […] We used 100 μg protein of lysates and added GSH up to final concentrations between 0.375–3 mM. The rates of the GPx activity were calculated by nonlinear regression and the fitted with the GraphPad Prism 6.0 software: “Enzyme kinetics – Substrate vs. Velocity (Michaelis‐Menten)”.

[3] = test system: Gumbus cells; experiment: Western blot analysis of PARP cleavage; assay type: cell-based, human; conditions: multiple IC50 concentrations, 6 h
Procedure: (§1) Another method for detecting caspase dependent apoptosis is to measure the cleavage of the enzyme poly‐(ADP‐ribose)‐polymerase (PARP) by western blotting. After an apoptotic stimulus, caspases, e. g. caspase‐3 and caspase‐7, cleave PARP, resulting in a loss of its function to mediate DNA‐repair processes. Cells were incubated with multiple IC50 concentrations of 4 for 6 and 24 h. […] Thus, pentathiepin 4 appears to induce the caspase dependent induction of apoptosis.
(§2) Western blot analysis of PARP: For western blot analysis the Biorad system with “Mini‐Protean® TGX Stain‐Fee™ Gels” and “Trans‐Blot® Turbo™ Transfer Pack Mini” PVDF‐membranes were used (Biorad, Germany). Protein lysates for analysis were prepared by seeding out 10^6 cells into T25 flasks and incubated with 4 in multiple concentrations of the viability IC50 for 6 and 24 h. […] Lysates were centrifuged at 18 000 g for 10 min at 4 °C and protein content was determined by the Bradford method against bovine serum albumin (BSA) as standard. […] Protein bands were detected with Clarity™ Western ECL Substrate (Biorad) and recorded by an Advanced Fluorescence Imager (INTAS, Germany).

[4] = test system: HL-60 cells; experiment: Western blot analysis of PARP cleavage; assay type: cell-based, human; conditions: multiple IC50 concentrations, 6 h
Procedure: as §1, §2

[5] = test system: pBR322 plasmid; experiment: Cleavage of supercoiled plasmid DNA; conditions: 5 μM, 20 h, 37 °C
Procedure: To assess the potential DNA‐cleaving activity of 4 a plasmid cleavage assay was performed. This method makes use of the different mobilities that plasmids display during electrophoretic separation processes in an agarose gel. An intact supercoiled plasmid has the highest mobility due to its compactness, open circular plasmids (ocDNA), e. g. plasmids with a single strand break, present a lower mobility due to increased friction of this less compact DNA construct. Commercially available DNA plasmids usually present ratios of 95 % supercoiled and 5 % ocDNA. Upon treatment with DNA‐damaging agents this ratio will be shifted towards a higher amount of ocDNA due to single strand breaks, or even linearized DNA in case double strand breaks are induced. […]
Cleavage of supercoiled plasmid DNA: For this assay, 0.3 μg pBR322 plasmid (Thermo Fisher) were incubated with either 0.1 % DMF or 5 μM 4 with or without 2 mM glutathione (GSH) in a 50 mM sodium phosphate buffer at pH 7.5 for 20 h in a 37 °C water bath. Afterwards, the samples were separated on a 1 % agarose (Geneon) gel at 80 V (5 V/cm) for 2 h, stained with GelRed (Biotium) and the image captured and bands quantified using ImageLab (Biorad). The resulting data was analyzed and visualized with Prism 7 (GraphPad).

CCOc1c2c(c3cnc4cc(C)c(C)cc4n13)SSSSS2 [Compound 4]
change in morphology [1]: membrane blebbing | inhibition of GPx activity [2]: about 20% | PARP cleavage [3]: cleavage of PARP was detectable | PARP cleavage [4]: cleavage of PARP was detectable | fraction of damaged plasmid ([5]; with 2 mM GSH): 19% | fraction of damaged plasmid ([5]; without additional thiol): 7%
